Data set [1] can be described thus: (§1) DNDI: Metabolism. Type of data set: ADME, Microsome. The note with it: human, microsomes; for hepatic extraction ratio: read-out: EH.
Data set [2] addresses T1, Cytochrome P450 3A4 (Homo sapiens, UniProt P08684). The data set can be described thus: (§2) DNDI: CYP Inhibition. Type of data set: ADME.
The nature of data set [3]: DNDI: Lipophilicity (gLogD) at pH 3. The note with it: buffer. The format is physicochemical.
For data set [4], the system named is Trypanosoma brucei rhodesiense. The data set can be described thus: DNDI: HAT in vitro. The format is functional, organism-based. The note with it: ATCC 30027.
The nature of data set [5]: DNDI: Solubility in 0.01M HCl at pH 2 determined by nephelometry. The format is physicochemical. Conditions: for solubility kinetic: 0.01 M HCl.
The target in data set [6] is T1, Cytochrome P450 3A4. The data set is described as §2. Type of data set: ADME. The source holds these as a separate data set.
Data set [7] can be described thus: (§3) DNDI: Cytotoxicity against L-6 rat myoblasts from skeletal muscle. The format is toxicity, cell-based, Muscle tissue, L6. Conditions: rat, L6 rat skeletal muscle myoblasts.
The subject of data set [8] is L6. Described as §3. Type of data set: toxicity, cell-based, Muscle tissue. The note with it: l6.
Data set [9] concerns Trypanosoma cruzi. The experiment in a line: (§4) DNDI: Chagas in vitro. The format is functional, Tulahuen C4 (LacZ).
Data set [10] can be described thus: DNDI: Lipophilicity (s.f. LogD) at pH 2. The note with it: buffer. Type of data set: physicochemical.
Data set [11] can be described thus: DNDI: Protein binding in mouse plasma. Type of data set: ADME, 10090. Conditions: read-out: % bound (converted).
Data set [12] concerns the target T1, Cytochrome P450 3A4. Described as §2. Type of data set: ADME. This is another data set of the same source.
Data set [13] concerns Trypanosoma cruzi. The description is as §4. Type of data set: functional, organism-based, Tulahuen C4 (LacZ).
Data set [14] is described as follows: DNDI: Protein binding in dog plasma. The note with it: read-out: % bound (converted). Type of data set: ADME, Canis lupus familiaris, 9615.
Data set [15] is described as follows: DNDI: Lipophilicity (gLogD) at pH 7.4. The format is physicochemical. The note with it: buffer.
The nature of data set [16]: DNDI: Protein binding 10% serum RPMI. The format is ADME. The note with it: RPMI with 10% serum; read-out: % bound (converted).
Data set [17] in a line: DNDI: Protein binding in human liver microsomes. Type of data set: ADME. The note with it: read-out: % bound (converted). (In general: Liver microsomes are a subcellular fraction often used to study metabolism.)
Data set [18] is described as follows: (§5) DNDI: Solubility, 24 hour, FaSSIF, 37C. Type of data set: physicochemical. The note with it: read-out: Equilibrium.
Data set [19] is described as follows: DNDI: Solubility, 24 hour, FaSSIF buffer - pH 6.5. 37C. Conditions: read-out: Equilibrium. Type of data set: physicochemical.
The target in data set [20] is T1, Cytochrome P450 3A4. The description is as §2. The format is ADME. The source holds these as a separate data set.
Data set [21] can be described thus: DNDI: Lipophilicity (s.f. LogD water). The format is physicochemical.
A short description of data set [22]: DNDI: Lipophilicity (s.f. LogD) at pH 5. Type of data set: physicochemical. The note with it: buffer.
Data set [23] is described as follows: (§6) DNDI: Solubility, 24 hour, Isotonic phos buffer - pH 2. The note with it: isotonic phosphate buffer, read-out: Equilibrium. The format is physicochemical.
A short description of data set [24]: DNDI: Protein binding in rat plasma. The note with it: read-out: % bound (converted). The format is ADME, 10116.
The nature of data set [25]: DNDI: Lipophilicity (s.f. LogD) at pH 7.4. Type of data set: physicochemical. The note with it: buffer.
A short description of data set [26]: DNDI: Solubility, 24 hour, SGF - pH 1, 37C. Conditions: read-out: Equilibrium. Type of data set: physicochemical.
The nature of data set [27]: DNDI: Solubility, 24 hour, FaSSIF buffer - pH 5.8, 37C. The note with it: read-out: Equilibrium. The format is physicochemical.
Data set [28] is described as follows: as §1. Type of data set: ADME, 10090, Microsome. Conditions: mouse, microsomes.
The nature of data set [29]: as §1. The format is ADME, 10116, Microsome. Conditions: rat, microsomes.
Data set [30] can be described thus: DNDI: pKa. Type of data set: physicochemical.
The nature of data set [31]: DNDI: Protein binding in human plasma. The format is ADME. Conditions: read-out: % bound (converted).
Data set [32] in a line: as §1. The format is ADME, Canis lupus familiaris, 9615, Microsome. The note with it: dog, microsomes.
A short description of data set [33]: as §6. Type of data set: physicochemical. Conditions: isotonic phosphate buffer, read-out: Equilibrium. The source holds these as a separate data set.
The nature of data set [34]: as §5. The format is physicochemical. The note with it: read-out: Equilibrium. The source holds these as a separate data set.
The nature of data set [35]: DNDI: Solubility in phosphate buffer at pH 6.5 determined by nephelometry. Type of data set: physicochemical.
[36] abbreviates: Trypanosoma cruzi, Tulahuen C4 (LacZ).

The values below come from ChEMBL document CHEMBL3137386, “DNDi T. cruzi fenarimol series dataset from which preclinical candidate EPL-BS1246 was identified (see also related datasets CHEMBL2448688 and CHEMBL3137440)”.

One may read the half-life as the time needed for the level to fall by half in the phase considered. A higher half-life goes with slow loss. As usually defined, the microsomal CLint is the rate of metabolic loss divided by the concentration. Broadly, the IC50 is the concentration needed to halve the response being measured. A high value points to lower potency. Usually chromatographic logD stands for lipophilicity estimated from chromatographic retention. The low end stands for a more hydrophilic compound, the high end for a more lipophilic compound. For orientation: kinetic solubility means the concentration staying in solution when a stock, usually in DMSO, is diluted into the medium. One may read the IC90 as the concentration at which the effect reaches the 90% level. For orientation: logD means the decadic logarithm of the distribution of all forms, ionised or not, between an organic phase and buffer at a given pH. The pKa is the pH at which an ionisable group is half protonated. The low end stands for a stronger acid or weaker base, the high end for a weaker acid or stronger base.

Values after ≈ are worked out from the molar mass of the structure shown. Values joined by “and” are separate entries in the source; they are usually repeats but may differ in a detail not shown here. Equal entries are not always repeated.

T1 sequence (P08684 whole entry): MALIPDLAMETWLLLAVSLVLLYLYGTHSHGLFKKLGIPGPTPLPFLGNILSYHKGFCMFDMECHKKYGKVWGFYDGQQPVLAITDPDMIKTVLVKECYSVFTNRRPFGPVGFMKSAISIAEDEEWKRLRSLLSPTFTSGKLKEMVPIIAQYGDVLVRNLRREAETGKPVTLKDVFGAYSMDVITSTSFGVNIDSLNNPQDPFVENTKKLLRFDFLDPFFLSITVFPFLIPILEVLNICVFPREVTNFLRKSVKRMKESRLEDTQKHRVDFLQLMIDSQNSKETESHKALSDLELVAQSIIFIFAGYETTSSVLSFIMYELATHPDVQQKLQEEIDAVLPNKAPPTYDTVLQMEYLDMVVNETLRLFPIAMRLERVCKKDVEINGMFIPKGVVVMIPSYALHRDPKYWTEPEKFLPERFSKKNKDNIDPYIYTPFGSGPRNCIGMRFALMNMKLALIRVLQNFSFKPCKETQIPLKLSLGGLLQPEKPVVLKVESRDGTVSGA

Take `O=C(C(c1ccc(Cl)cc1)c1cccnc1)N1CCN(c2ccc(C(F)(F)F)cn2)CC1` (centres undefined): in data set [1], the Clint was 28 µL/min/mg and 30 µL/min/mg; the EH is 0.61 and 0.63; the half-life was 41 min; the microsomal CLint was determined as 42 µL/min/mg. Besides, in [1], the “t (1 / 2)” value was 63 min and 57 min; the hepatic extraction ratio was 0.7. In data set [2], this compound showed an IC50 above 20 µM. The chromatographic logD in data set [3] amounted to 3.8. This compound came in with an IC50 in data set [4] above 10 µM. This compound also returned a solubility (kinetic) in [5] above 100 µg/mL. In data set [5] (buffer), the Kinetic was 25 µg/mL. Besides, the IC50 in data set [6] turned out to be 6.6 µM. This compound returned an IC50 in data set [7] of 57 µM. The same compound displayed an IC50 in data set [8] of 59.3 µM. Besides, in [9], the IC90 is > 0.1 µM and 0.401 µM.
`O=C(C(c1ccc(Cl)cc1)c1cccnc1)N1CCN(c2ccc(C(F)(F)F)cc2)CC1` (centres undefined): the half-life in data set [1] stood at 85 min; in [28], 30 min; in [29] it was 46 min; in data set [32] it was 130 min. For the same compound, the microsomal CLint is 20 µL/min/mg in data set [1], 59 µL/min/mg in data set [28], 38 µL/min/mg in [29] and 13 µL/min/mg in data set [32]. The hepatic extraction ratio is 0.53 in data set [1], 0.72 in data set [28] (read-out: EH), 0.55 in data set [29] (read-out: EH) and 0.38 in [32] (read-out: EH). In addition, the logD in [10] amounted to 2.71; in data set [21] it was 5.44; in data set [22], 5.47; in data set [25], 5.54. Also, the fraction unbound was 0.014 in data set [11]; 0.012 in data set [14]; 0.076 in data set [16]; 0.023 in data set [17]; 0.027 in data set [24]; 0.025 in data set [31]. The chromatographic logD was 4.1 in data set [3] and 4.5 in data set [15]. In addition, the IC50 was above 10 µM in [4]; 7.4 µM in data set [12]; 0.007 µM in [13]; 0.01 µM in data set [13] (setting [36]); 20 µM in data set [6]; 1.2 µM in data set [20]. For the same compound, the figures for the IC50 in data set [7] and in [8] were 37.7 µM and 42.4 µM, respectively. The compound further gave a kinetic solubility in [5] above 100 µg/mL. Also, the solubility thermodynamic at 24 h was 75.9 µg/mL (≈ 165 µM) in data set [18]; below 1 µg/mL in data set [19]; 127 µg/mL (≈ 276 µM) in data set [23]; 1500 µg/mL (≈ 3260 µM) in data set [26]; below 1 µg/mL in data set [27]; below 1 µg/mL in data set [33]. Besides, the solubility thermodynamic at 24 h in data set [34] is 1.3 µg/mL (≈ 2.83 µM). In [9], the IC90 was 0.01 µM and 0.0475 µM. For the same compound, in data set [30], the pKa stood at 2.62.
Consider `CS(=O)(=O)c1ccc(N2CCN(C(=O)C(c3ccc(Cl)cc3)c3cccnc3)CC2)cc1` (centres undefined), for which the Clint in [1] was 84 µL/min/mg and 53 µL/min/mg and 38 µL/min/mg. The EH in data set [1] was 0.75 and 0.68. The “t (1 / 2)” value in data set [1] was 21 min and 33 min and 46 min. In data set [1], the hepatic extraction ratio was found to be 0.82. Also, the IC50 was 19 µM in data set [2]; above 10 µM in data set [4]; 7.1 µM in [6]; above 100 µM in [7]; 61.5 µM in data set [8]. Besides, the chromatographic logD in data set [3] came to 2.3; in [15], 2.9. Also, the kinetic solubility in [5] came out at 25 µg/mL (≈ 53.2 µM). For the same compound, the IC90 in [9] was 0.214 µM and > 0.1 µM.
On to `N#Cc1ccc(C(C(=O)N2CCN(c3ccc(C(F)(F)F)nc3)CC2)c2cccnc2)cc1` (centres undefined), for which the Clint in [1] is 22 µL/min/mg and 21 µL/min/mg. In addition, the EH in data set [1] was 0.56 and 0.54. Besides, in [1], the half-life is 144 min. In [1], this compound had a microsomal CLint of 12 µL/min/mg. The “t (1 / 2)” value in data set [1] was 77 min and 81 min. The hepatic extraction ratio in data set [1] was 0.4. For the same compound, the half-inhibitory concentration (IC50) in data set [2] is above 20 µM; in data set [4], above 10 µM; in data set [13], 0.055 µM and > 0.1 µM and 0.0205 µM; in data set [7] it was above 100 µM. The chromatographic logD in [3] came out at 2.5; in data set [15], 3. The kinetic solubility in data set [5] was above 100 µg/mL; in [35] it was 12.5 µg/mL (≈ 27.7 µM). Further, the IC90 in data set [9] is 0.0815 µM; in data set [9] (setting [36]) it was above 0.1 µM.
On to `O=C(C(c1ccc(Cl)cc1)c1cccnc1)N1CCN(c2ccc(C(F)(F)F)nc2)CC1` (centres undefined), for which, in data set [1], the Clint is 36 µL/min/mg and 61 µL/min/mg; the EH is 0.77 and 0.7; the half-life came out at 41 min; the microsomal CLint stood at 42 µL/min/mg. In data set [1], the “t (1 / 2)” value was 49 min and 28 min; the hepatic extraction ratio stood at 0.67. For the same compound, in data set [2], the IC50 is above 20 µM. This compound also showed a chromatographic logD in data set [3] of 3.2. Also, in data set [4], the 50% inhibitory concentration (IC50) was above 10 µM. Besides, in [5], the solubility (kinetic) was above 100 µg/mL. Also, the half-maximal inhibitory concentration (IC50) in [6] amounted to 20 µM. Further, in data set [7], the IC50 is 66.8 µM. Besides, the IC90 in [9] is > 0.1 µM and 1.03 µM.
